Test results as given in patent US9540325B2, “N1-cyclic amine-N5-substituted phenyl biguanide derivatives, methods of preparing the same and pharmaceutical composition comprising the same” (Immunomet Therapeutics, Inc., priority 2011, dated 2017).

Columns and labels:
Assay type in all cases: cell-based, human
AMPKα = assay: Measurement of AMPK activation effect (AMPKα Thr172 phosphorylation immunoassay) in MCF7 cells; conditions: 24 hours; for AMPK activation effect at 10 μM (%) / AMPK activation effect at 50 μM (%): relative to untreated cells; for AMPK activation effect AC150: concentration at which AMPK activation reached 150%
How it was run: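 MCF7 cells in DMEM/10% FBS were treated 24 h with derivatives at 5, 10 and 50 μM (metformin hydrochloride control, 0.05–10 mM). AMPKα Thr172 phosphorylation was measured by immunoassay on 20 μg lysate. AC150 (concentration giving 150% activation) came from concentration–response curves, with activation also reported at fixed concentrations.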

[1] = tested on: MCF7 cells (breast cancer stem cell, mammosphere); assay: Measurement of effect of inhibiting mammosphere formation; conditions: MCF7, 8 days; for Number of Mammospheres: size 50 um or more; for inhibition at 0.1 µM / inhibition at 1 µM / inhibition at 5 µM / inhibition at 10 µM: Homo sapiens, 192 h, vs untreated, read-out: Mammosphere formation inhibition rate (%)
From the text: The cancer stem cells refer to cancer cells that have self-regeneration or differentiation capacity which is characteristically innate to stem cells. Here, the cancer stem cells show resistance to conventional anticancer therapy and poor prognosis. Therefore, the biguanide derivative has an effect of inhibiting cancer recurrence by inhibiting formation and proliferation of cancer stem cells, especially, breast cancer stem cells (mammosphere). Accordingly, the effect of the biguanide derivative of inhibiting breast cancer stem cell (mammosphere) formation was measured in an MCF7 cell line derived from human breast cancer forming mammospheres, and simple experimental methods are described, as follows.
MCF7 cells derived from human breast cancer were cultured (culture temperature: 37° C., pH: 7.0 to 7.4) in a DMEM medium supplemented with 10% (v/v) fetal bovine serum (commercially available from Gibco Life Technologies (US)) so that the MCF7 cells could grow to approximately 80% confluency and used in an experiment to determine an ability to form mammospheres. After MCF7 cells were made to single cells and the number of cell was counted, MCF7 cells were put in to a 24-well plate at 2,000 cells/well. […] Also, a culture media for forming mammospheres was prepared so that a serum-free DMEM/F12 medium could include 2% B27 (commercially available from Invitrogen), 20 ng/ml EGF (commercially available from Sigma), 5 μg/ml insulin (commercially available from Sigma) and 1 μg/ml hydrocortisone (commercially available from Sigma). Cells were cultured in a CO2 incubator for 24 hours and treated with each of the compounds synthesized in the examples at contents of 0.1 μM, 1 μM, 5 μM and 10 μM. Then, the cultured cells were added to the culture media for forming mammospheres so that a final volume of the culture broth could be adjusted to 1 ml. The cells were treated with the same concentrations of phenformin hydrochloride as the control and cultured in a CO2 incubator for 8 days. Thereafter, the mammosphere-forming efficiency and size of the cells were observed. After 8 days, the number of mammospheres having a size of 50 um or more was determined to calculate the mammosphere-forming efficiency (MFE (%)). The MFE (%) is calculated according to the following Equation 1.
When the cells were cultured for 8 days, MFE (%) of the cells on a plate treated with the phenformin hydrochloride and the compounds synthesized in the examples was compared with MFE (%) of the cells on a plate that was not treated with the compounds. The results are listed as the mammosphere formation inhibition rate (%) in the following Table 4, and the mammosphere-forming efficiencies of the respective compounds are shown in FIG. 1.

HCT116 cells = assay: Measurement of effect of inhibiting cancer cell proliferation (MTT); conditions: for inhibition at 100 µM: HCT-116, 100 μM, read-out: Cell Growth Inhibition (%) at 100 μM
How it was run: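 HCT116 cells (~5,000/well, DMEM with 10% FBS) treated 48 h with compound at 0.39–100 μM, metformin hydrochloride control at 0.1–25 mM. Viability by MTT (3 h, formazan in DMSO, A560) relative to untreated wells; GIC50 from the viability curve, also viability at 100 μM.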

Row | Structure (SMILES) | AMPK activation effect at 10 μM (%) (AMPKα) | AMPK activation effect at 50 μM (%) (AMPKα) | AMPK activation effect AC150 (AMPKα) [µM] | MFE (%) (mammosphere-forming efficiency) ([1]; 0.1 μM) | Number of Mammospheres ([1]; 0.1 μM) | MFE (%) (mammosphere-forming efficiency) ([1]; 1 μM) | Number of Mammospheres ([1]; 1 μM) | MFE (%) (mammosphere-forming efficiency) ([1]; 5 μM) | Number of Mammospheres ([1]; 5 μM) | MFE (%) (mammosphere-forming efficiency) ([1]; 10 μM) | Number of Mammospheres ([1]; 10 μM) | inhibition at 0.1 µM ([1]; 0.1 μM) [%] | inhibition at 1 µM ([1]; 1 μM) [%] | inhibition at 5 µM ([1]; 5 μM) [%] | inhibition at 10 µM ([1]; 10 μM) [%] | inhibition at 100 µM (HCT116 cells; Homo sapiens, 48 hours) [%] | GI50 (HCT116 cells; Homo sapiens, HCT-116, 48 h) [µM] | GI50 (HCT116 cells; 48 hours, hydrochloride) [µM]
1 | Cl.N=C(NC(=N)N1CCCCC1)Nc1cccc(Cl)c1 [Example 20, N1-piperidine-N5-(3-chloro)phenyl biguanide hydrochloride] | 236 | 558 | 3.2 | 3.6 | 72 | 5.2 | 103 | 3.8 | 75 | 1.5 | 29 | 30.1 | 0 | 27.2 | 71.8 | 97.5 | 48.2 | –
2 | Cl.N=C(NC(=N)N1CCCCCC1)Nc1cccc(Cl)c1 [Example 21, N1-azepane-N5-(3-chloro)phenyl biguanide hydrochloride] | 211 | 653 | 4.8 | 5.8 | 115 | 5.3 | 105 | 3.6 | 71 ± 4.2 | 2.3 | 46 ± 2.1 | 30.1 | -1.9 | 31.1 | 55.8 | 97 | 41.5 | –
3 | Cl.N=C(NC(=N)N1CCCC1)Nc1ccc(C(F)(F)F)cc1 [Example 26, N1-pyrrolidine-N5-(4-trifluoromethyl)phenyl biguanide hydrochloride] | 255 | 642 | 3.1 | 5.3 | 105 | 5.6 | 112 | 6.0 | 120 | 3.6 | 72 ± 11.3 | -11.7 | -8.7 | -16.5 | 30.1 | 97.6 | – | 22.7
4 | Cl.N=C(NC(=N)N1CCCCC1)Nc1ccc(C(F)(F)F)cc1 [Example 27, N1-piperidine-N5-(4-trifluoromethyl)phenyl biguanide hydrochloride] | 455 | – | 2.4 | 5.2 | 103 | 5.2 | 105 ± 16.3 | 3.0 | 61 ± 3.5 | 1.6 | 32 | 0 | -1.5 | 41.3 | 68.9 | 97.7 | 6.7 | –
